Data from ChEMBL document CHEMBL1150359, “Identification of non-lipid LPA3 antagonists by virtual screening” (Bioorg Med Chem, 2008).
Active and inactive are the calls of the source. The calls are words filed in the database; no cut-off is given here. Peptide text beside a SMILES is read from it. * marks the point of attachment. Dnp = O=[N+]([O-])c1ccc(*)c([N+](=O)[O-])c1

Assays:
[1] = biological target: T1, Lysophosphatidic acid receptor 1 (Homo sapiens, UniProt Q92633); experiment: Activity at LPA1 receptor expressed in rat RH7777 cells assessed as inhibition of LPA-induced intracellular calcium concentration at 30 uM; type: functional, cell-based
T1 sequence (Q92633 whole entry): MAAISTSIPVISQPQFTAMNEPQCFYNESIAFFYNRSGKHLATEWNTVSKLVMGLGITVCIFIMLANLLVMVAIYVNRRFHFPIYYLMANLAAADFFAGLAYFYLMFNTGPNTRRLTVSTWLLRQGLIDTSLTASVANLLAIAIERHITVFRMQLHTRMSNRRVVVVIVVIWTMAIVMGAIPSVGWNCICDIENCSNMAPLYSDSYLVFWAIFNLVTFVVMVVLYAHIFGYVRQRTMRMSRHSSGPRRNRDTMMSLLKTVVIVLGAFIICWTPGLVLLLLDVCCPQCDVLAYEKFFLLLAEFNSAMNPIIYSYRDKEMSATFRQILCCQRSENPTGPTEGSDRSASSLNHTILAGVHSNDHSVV

[2] = biological target: T2, Lysophosphatidic acid receptor 2 (Homo sapiens, UniProt Q9HBW0); experiment: Antagonist activity at LPA2 receptor expressed in rat RH7777 cells assessed as inhibition of LPA-induced intracellular calcium concentration; type: functional, cell-based
T2 sequence (Q9HBW0 whole entry): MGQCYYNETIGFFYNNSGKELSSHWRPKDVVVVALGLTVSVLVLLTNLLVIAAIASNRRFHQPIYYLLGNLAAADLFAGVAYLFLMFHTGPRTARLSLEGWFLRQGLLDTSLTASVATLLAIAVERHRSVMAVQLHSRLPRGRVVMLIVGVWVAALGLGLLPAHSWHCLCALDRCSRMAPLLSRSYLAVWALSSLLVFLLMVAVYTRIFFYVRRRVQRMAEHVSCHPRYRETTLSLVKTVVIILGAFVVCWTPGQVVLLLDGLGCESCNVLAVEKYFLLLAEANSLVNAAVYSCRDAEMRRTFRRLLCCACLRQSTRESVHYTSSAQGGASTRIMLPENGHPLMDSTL

[3] = biological target: T3, Lysophosphatidic acid receptor 3 (Homo sapiens, UniProt Q9UBY5); experiment: (§1) Antagonist activity at LPA3 receptor expressed in rat RH7777 cells assessed as inhibition of LPA-induced intracellular calcium concentration; type: functional, cell-based
T3 sequence (Q9UBY5 whole entry): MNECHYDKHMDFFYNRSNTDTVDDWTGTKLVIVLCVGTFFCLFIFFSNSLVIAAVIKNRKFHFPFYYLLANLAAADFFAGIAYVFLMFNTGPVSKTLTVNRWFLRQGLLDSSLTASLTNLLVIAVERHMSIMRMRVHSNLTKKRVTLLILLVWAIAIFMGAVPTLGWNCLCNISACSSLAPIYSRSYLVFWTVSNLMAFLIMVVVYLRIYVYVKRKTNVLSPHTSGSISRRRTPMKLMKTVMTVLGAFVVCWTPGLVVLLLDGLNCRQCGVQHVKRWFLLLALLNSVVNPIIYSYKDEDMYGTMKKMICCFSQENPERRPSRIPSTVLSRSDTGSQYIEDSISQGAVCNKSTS

[4] = biological target: T4, Lysophosphatidic acid receptor 3 (Homo sapiens) (UniProt Q9UBY5); experiment: as §1; type: functional, cell-based
T4 sequence (whole entry): T3 sequence (Q9UBY5 whole entry)

[5] = biological target: T4, Lysophosphatidic acid receptor 3 (Homo sapiens); experiment: Activity at LPA3 receptor expressed in rat RH7777 cells assessed as inhibition of LPA-induced intracellular calcium concentration at 30 uM; type: functional, cell-based
[6] = biological target: T4, Lysophosphatidic acid receptor 3 (Homo sapiens); experiment: Activity at LPA3 receptor expressed in rat RH7777 cells assessed as potentiation of LPA-induced intracellular calcium concentration; type: functional, cell-based
[7] = biological target: T1, Lysophosphatidic acid receptor 1; experiment: Antagonist activity at LPA1 receptor expressed in rat RH7777 cells assessed as inhibition of LPA-induced intracellular calcium concentration; type: functional, cell-based
[8] = biological target: T2, Lysophosphatidic acid receptor 2; experiment: Activity at LPA2 receptor expressed in rat RH7777 cells assessed as inhibition of LPA-induced intracellular calcium concentration at 30 uM; type: functional, cell-based
[9] = biological target: T1, Lysophosphatidic acid receptor 1; experiment: Agonist activity at LPA1 receptor expressed in rat RH7777 cells assessed as LPA-induced intracellular calcium response; type: functional, cell-based
[10] = biological target: T2, Lysophosphatidic acid receptor 2; experiment: Agonist activity at LPA2 receptor expressed in rat RH7777 cells assessed as LPA-induced intracellular calcium response; type: functional, cell-based
[11] = biological target: T3, Lysophosphatidic acid receptor 3; experiment: Agonist activity at LPA3 receptor expressed in rat RH7777 cells assessed as LPA-induced intracellular calcium response; type: functional, cell-based
[12] = biological target: T3, Lysophosphatidic acid receptor 3; experiment: Inhibition of LPA3 receptor

With `O=C(O)/C=C/C(=O)Nc1ccc(-c2ccc(NC(=O)/C=C/C(=O)O)cc2)cc1` the Imax [1] was 59%, the IC50 [2] was 28.3 nM and the Ki [2] was 21.1 nM. It also gave an IC50 [3] of 13800 nM and a Ki [3] of 7020 nM.

Molecule `O=C(O)/C=C/C(=O)Nc1cccc(NC(=O)/C=C/C(=O)O)c1C(=O)O` has an Imax [2] of 53.3% and an Imax [4] of 81.7%.

Work on `O=C(O)/C=C\C(=O)Nc1cccc(NC(=O)Cc2ccccc2)c1` yielded an Imax [1] of 52.2% and an Imax [5] of 16%.

`NCC(=O)N[C@@H](CSc1ccc([N+](=O)[O-])cc1[N+](=O)[O-])C(=O)N[C@@H](CCC(=O)O)C(=O)O` (H-Gly-Cys(Dnp)-Glu-OH) was tested, and the Imax [4] was 69.8% and the IC50 [3] was 24 nM.

In the case of `O=P(O)(O)OC[C@H]1O[C@@H](n2cnc3c(NCc4ccccc4)ncnc32)[C@H](O)[C@@H]1O`, the Activity [6] is reported as “Active”.

`Nc1ccc(C(=O)Nc2ccc(C(=O)Nc3ccc4c(O)cc(S(=O)(=O)O)cc4c3)cc2)cc1` was tested, and the IC50 [7] was > 7300 nM, the Imax [7] was 59.3% and the IC50 [2] was > 9400 nM. For the same molecule, the Imax [2] was 88% and the Imax [4] was 53.7%.

`O=C(O)/C=C/C(=O)Nc1ccc(Oc2cccc(Oc3ccc(NC(=O)/C=C/C(=O)O)cc3)c2)cc1` was tested, and the IC50 [7] was 27400 nM, the Ki [7] was 13500 nM and the IC50 [2] was 8.9 nM. For the same molecule, the Ki [2] was 7.2 nM, the IC50 [3] was 1230 nM and the Ki [3] was 310 nM.

Molecule `CCOC(=O)c1ccc(/C=C/c2ccc(S(=O)(=O)O)cc2)cc1` has an Emax [7] of 180%, an Emax [8] of 113% and an Emax [5] of 214%. The EC50 [9] was > 12300 nM, the EC50 [10] was > 11400 nM and the EC50 [11] was > 11800 nM.

`O=C(O)/C=C\C(=O)Nc1cccc(NC(=O)c2ccccc2)c1` showed an Imax [1] of 34.6%, an Imax [8] of 46% and an IC50 [3] of 347 nM. It also gave a Ki [3] of 317 nM.

`CCCCCCC(=O)OC[C@H](COP(O)(O)=S)OC(=O)CCCCCC` gave an IC50 [12] of 184 nM.

With `CCCCCCC(=O)OC[C@H](COP(=O)(O)O)OC(=O)CCCCCC` the IC50 [12] was 143 nM.

Work on `O=C(O)/C=C/C(=O)Nc1cccc(NC(=O)/C=C/C(=O)O)c1` yielded an IC50 [7] of 220 nM, a Ki [7] of 50 nM and an IC50 [2] of 21.8 nM. It also gave a Ki [2] of 20.8 nM.
